Assay results reported in ChEMBL document CHEMBL5137065, “Recent Advances with KDM4 Inhibitors and Potential Applications” (J Med Chem, 2022).

Assays:
[1] = biological target: T1, Lysine-specific demethylase 4D (Homo sapiens, UniProt Q6B0I6); assay: Inhibition of human KDM4D (1 to 378 residues) catalytic domain measured formaldehyde dehydrogenase (FDH)-coupled fluorescence assay
T1 sequence (Q6B0I6 whole entry): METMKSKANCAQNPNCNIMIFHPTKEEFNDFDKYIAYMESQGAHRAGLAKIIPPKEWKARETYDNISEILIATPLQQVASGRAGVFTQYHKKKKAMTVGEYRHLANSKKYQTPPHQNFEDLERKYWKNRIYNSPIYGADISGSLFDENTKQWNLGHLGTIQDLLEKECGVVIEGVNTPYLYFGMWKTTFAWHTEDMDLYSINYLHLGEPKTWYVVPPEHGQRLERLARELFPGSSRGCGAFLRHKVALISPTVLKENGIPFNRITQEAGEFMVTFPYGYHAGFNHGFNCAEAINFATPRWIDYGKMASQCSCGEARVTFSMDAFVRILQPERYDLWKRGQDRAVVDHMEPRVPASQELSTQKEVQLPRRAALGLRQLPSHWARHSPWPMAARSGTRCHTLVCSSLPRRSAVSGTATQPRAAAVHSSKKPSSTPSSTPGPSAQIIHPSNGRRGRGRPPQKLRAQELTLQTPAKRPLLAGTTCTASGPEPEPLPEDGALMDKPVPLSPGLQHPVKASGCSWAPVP

[2] = biological target: T2, Lysine-specific demethylase 4B (Homo sapiens, UniProt O94953); assay: Inhibition of human KDM4B (1 to 347 residues) catalytic domain measured formaldehyde dehydrogenase (FDH)-coupled fluorescence assay
T2 sequence (O94953 whole entry): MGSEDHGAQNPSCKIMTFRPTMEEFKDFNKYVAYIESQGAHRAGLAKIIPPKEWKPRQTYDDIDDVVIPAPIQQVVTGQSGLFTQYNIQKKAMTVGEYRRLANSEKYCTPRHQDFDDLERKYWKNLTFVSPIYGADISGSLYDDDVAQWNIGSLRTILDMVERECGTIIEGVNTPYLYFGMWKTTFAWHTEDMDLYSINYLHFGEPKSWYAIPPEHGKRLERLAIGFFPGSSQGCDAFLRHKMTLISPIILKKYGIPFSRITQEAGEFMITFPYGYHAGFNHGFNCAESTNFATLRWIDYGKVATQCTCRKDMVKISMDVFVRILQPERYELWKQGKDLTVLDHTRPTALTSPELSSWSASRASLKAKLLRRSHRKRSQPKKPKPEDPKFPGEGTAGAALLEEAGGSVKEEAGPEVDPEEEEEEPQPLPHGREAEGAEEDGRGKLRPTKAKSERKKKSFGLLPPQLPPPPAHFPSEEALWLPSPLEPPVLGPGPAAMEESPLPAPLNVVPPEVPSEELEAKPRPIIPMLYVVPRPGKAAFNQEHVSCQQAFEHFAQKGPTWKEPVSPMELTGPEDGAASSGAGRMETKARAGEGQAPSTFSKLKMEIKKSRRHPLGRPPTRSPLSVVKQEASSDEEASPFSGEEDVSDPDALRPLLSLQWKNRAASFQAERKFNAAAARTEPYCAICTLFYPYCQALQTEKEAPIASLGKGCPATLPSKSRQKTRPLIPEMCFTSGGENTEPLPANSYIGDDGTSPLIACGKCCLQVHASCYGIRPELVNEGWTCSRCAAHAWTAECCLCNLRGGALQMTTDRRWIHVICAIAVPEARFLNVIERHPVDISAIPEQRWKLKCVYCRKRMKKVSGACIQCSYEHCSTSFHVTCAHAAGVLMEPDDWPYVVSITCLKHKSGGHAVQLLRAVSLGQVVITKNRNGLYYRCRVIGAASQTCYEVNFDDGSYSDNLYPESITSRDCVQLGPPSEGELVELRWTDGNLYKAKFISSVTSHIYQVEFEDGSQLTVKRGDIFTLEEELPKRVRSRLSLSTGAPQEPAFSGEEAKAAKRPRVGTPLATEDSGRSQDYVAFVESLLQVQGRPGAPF

[3] = biological target: T3, Lysine-specific demethylase 4E (Homo sapiens, UniProt B2RXH2); assay: Inhibition of human KDM4E (1 to 378 residues) catalytic domain measured formaldehyde dehydrogenase (FDH)-coupled fluorescence assay
T3 sequence (B2RXH2 whole entry): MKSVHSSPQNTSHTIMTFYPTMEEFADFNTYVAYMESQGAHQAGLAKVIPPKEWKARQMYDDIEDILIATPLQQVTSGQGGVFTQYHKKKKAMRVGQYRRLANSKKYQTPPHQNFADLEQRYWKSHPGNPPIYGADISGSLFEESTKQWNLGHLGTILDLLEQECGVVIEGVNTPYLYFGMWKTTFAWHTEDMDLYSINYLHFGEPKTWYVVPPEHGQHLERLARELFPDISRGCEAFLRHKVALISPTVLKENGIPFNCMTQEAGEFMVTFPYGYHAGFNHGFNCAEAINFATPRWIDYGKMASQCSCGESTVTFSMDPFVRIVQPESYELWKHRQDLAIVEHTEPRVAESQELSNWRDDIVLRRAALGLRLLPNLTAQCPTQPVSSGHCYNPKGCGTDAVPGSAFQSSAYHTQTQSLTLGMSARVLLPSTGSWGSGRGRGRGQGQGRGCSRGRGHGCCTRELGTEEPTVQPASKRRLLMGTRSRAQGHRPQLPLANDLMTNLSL

Measured: IC50

COC(=O)Cc1cc(O)n(-c2nc3ccccc3[nH]2)n1
4 µM: all assays above
